Like-named read-outs stand apart in the source and are kept apart here.
Assays:
[1] = system: Zta promoter; type: cell-based, Epstein-Barr virus; settings: for known lytic inducer re-identified / hit in epithelial promoter reporter assay: library screen at 10 uM; for Zta promoter luciferase activity: AGS cells
[2] = system: recombinant EBV encoding GFP (BX-1) in AKATA-BX1 cells; test: GFP whole virus assay in AKATA-BX1 cells; settings: library screen at 10 uM

Molecule | known lytic inducer re-identified / hit in epithelial promoter reporter assay [1] | known lytic inducer re-identified / hit in lymphoma cell line/whole virus assay [2] | further results
O=c1[nH]cc(F)c(=O)[nH]1 [5-FU] | verified | – | –
[Cl][Co][Cl] [Cobalt chloride] | missed | missed | –
COc1cccc2c1C(=O)c1c(O)c3c(c(O)c1C2=O)C[C@@](O)(C(=O)CO)C[C@@H]3O[C@H]1C[C@H](N)[C@H](O)[C@H](C)O1 [Doxorubicin] | verified | verified | –
CN(Cc1cnc2nc(N)nc(N)c2n1)c1ccc(C(=O)N[C@@H](CCC(=O)O)C(=O)O)cc1 [Methotrexate] | verified | – | –
CCCCCCCCCCCCCC(=O)O[C@@H]1[C@@H](C)[C@@]2(O)[C@@H](C=C(CO)C[C@]3(O)C(=O)C(C)=C[C@@H]23)[C@@H]2C(C)(C)[C@]12OC(C)=O [PMA] | verified | verified | –
CCCC(=O)[O-].[Na+] [Sodium butyrate] | missed | missed | –
CC(=O)O[C@H]1C(=O)[C@@]2(C)[C@H]([C@H](OC(=O)c3ccccc3)[C@]3(O)C[C@H](OC(=O)[C@H](O)[C@@H](NC(=O)c4ccccc4)c4ccccc4)C(C)=C1C3(C)C)[C@]1(OC(C)=O)CO[C@@H]1C[C@@H]2O [Taxol] | verified | – | –
CCCC(=O)O [butyrate] | – | – | Zta promoter luciferase activity [1]: activated
N.N.[Cl][Pt][Cl] [cis-platinum] | verified | – | –
CC[C@H](C)C(=O)O[C@H]1C[C@@H](C)C=C2C=C[C@H](C)[C@H](CC[C@@H]3C[C@@H](O)CC(=O)O3)[C@H]21 [lovastatin] | – | – | suppression hits in GFP whole virus assay ([2]; picked after day 10): suppression hits
CCCC(CCC)C(=O)O [valproate] | – | – | Zta promoter luciferase activity [1]: activated; Zta promoter luciferase activity ([1]; listed as valproic acid): increased expression of luciferase in a dose-dependent manner
Arginine butyrate | missed | missed | –
